Reference: patent US20070128303A1, “Anti-inflammatory, cytoprotective factor derivable from a probiotic organism” (THE UNIVERSITY OF CHICAGO, priority 2004, published 2007)
Starred links: 1 amine or outer side, 2 acyl side, 3 side chain; linkers in the order of their positions; H or OH if unused. Positions of bridges follow the written chain, without caps; N, C: chain ends. Non-standard residues stand in square brackets, D forms with d. Residues, ends and D or L forms follow the SMILES beside them. *: point of attachment. Trp(2-yl) = O=C([C@H](Cc1c([*:3])[nH]c2ccccc12)N[*:1])[*:2]; Leu(4R-OH,5-OH) = C[C@](O)(CO)C[C@H](N)C(=O)O; cisHyp = O=C(O)[C@@H]1C[C@H](O)CN1; Cbz = O=C(OCc1ccccc1)*

Tests used:
Hsp25 and Hsp72 = test: Immunoblot of Hsp25 and Hsp72 expression in YAMC cells; format: cell-based, mouse
Procedure: Twenty micrograms of protein per lane were resolved on 12.5% SDS-PAGE and transferred in 1× Towbin buffer (composition 25 mM Tris, 192 mM glycine, pH 8.8, 15% vol/vol methanol) onto PVDF membranes (Polyscreen, Perkin-Elmer NEN, Boston, Mass.) as previously described (Kojima, 2003), incorporated herein by reference. Membranes were blocked in 5% (wt/vol) non-fat milk in TBS-Tween (Tris-buffered saline (150 mM NaCl, 5 mM KCl, 10 mM Tris, pH 7.4) with 0.05% (vol/vol) Tween 20) for one hour at room temperature. For anti-ubiquitin blots, membranes were blocked in 3% bovine serum albumin (Fisher, Pittsburgh, Pa.). Primary antibody was added to TBS-Tween and incubated overnight at 4° C. with a specific anti-Hsp 25 antibody (SPA 801, Stressgen, Victoria, BC, Canada), anti-Hsp 72 antibody (SPA 810, Stressgen), anti-Hsc 73 antibody (SPA 815, Stressgen), anti-IκB-α antibody (sc-1643, Santa Cruz Biotechnology, Santa Cruz, Calif.), anti-phospho IκB-α antibody (sc-8404, Santa Cruz), or anti-ubiquitin antibody (PW 8810, Affiniti Research Products Ltd, Exeter, U.K.). Blots were then washed in TBS-Tween five times for 10 minutes each at room temperature before incubation with peroxidase-conjugated secondary antibodies (Jackson Immunoresearch Labs, Inc. Fort Washington, Pa.) for 1 hour at room temperature. […]

[1] = molecular target: T1, 20S proteasomal component (barrel) (Homo sapiens, UniProt P28074); test: In vitro 20S proteasome assay (Calbiochem); format: biochemical; settings: 20S component, slopes compared
T1 construct: purchased Calbiochem
Procedure: Proteasome activity from cell lysates was determined using a 20S Proteasome assay kit (Calbiochem, San Diego, Calif.). Briefly, ice-cold cell lysate containing 20 μg protein was added to proteasome assay reaction buffer (25 mm HEPES, 0.5 mM EDTA, pH 7.6) activated with 0.03% (wt/vol) SDS. The sample was allowed to come to room temperature, then placed in a quartz cuvette and 10 μM of the substrate suc-leu-leu-val-tyr-AMC (SLLVY-AMC), Bz-val-gly-arg-AMC, or Z-leu-leu-glu-AMC was added. The SLLVY-AMC substrate is cleaved by the chymotrypsin-like activity of the proteasome, the Bz-val-gly-arg-AMC substrate is cleaved by the trypsin-like activity of the proteasome, and the Z-leu-leu-glu-AMC substrate is cleaved by the PGPH, or caspase-like, activity of the proteasome. Proteasome activity was determined by measuring the fluorogenic signal generated by cleavage of AMC (7-amino-4-methylcoumarin) from the peptide moiety of the proteasome substrate. Fluorescence (excitation at 380 nm, emission at 460 nm) was measured every minute for the first 10 minutes, then every 15 minutes thereafter in a Hitachi F-2000 fluorometer (Hitachi, Japan). Cells were treated with either MG132 (25 μM) or lactacystin (10 μM) as a positive inhibitor control. Untreated cells were treated with DMSO as a vehicle control for MG132 and lactacystin. Experiments were performed in triplicate. […]

NF-κB = NF-κB ELISA assay (Active Motif), TNF-α stimulation; format: cell-based; settings: TNF-α 30 ng/ml
Procedure: The proteasome inhibitors in VSL#3 may be small organic molecules. Some proteasome inhibitors found in nature are small molecular weight organic esters or organic acid derivatives, such as those in green tea. An ether extraction of the VSL#3-CM was undertaken to determine if bioactive factors could be concentrated to produce a more consistent and robust response. […] TNF-α stimulation (30 ng/ml) alone caused a significant increase in NF-κB activation (second bar from left).

F/G actin = F/G actin assay, YAMC cells under oxidant stress; format: cell-based, mouse; settings: phalloidin 30 μg/ml 2 hours; cytochalasin D 10 μg/ml 15 min
Procedure: F/G actin assays were conducted by initially shifting confluent YAMC cell monolayers to 37° C. in IFN-γ-free medium and treating with VSL#3-CM overnight. Prior to assessment, cells were treated with phalloidin (30 μg/ml for 2 hours; Molecular probes, Eugene, Oreg.), cytochalasin D (10 μg/ml for 15 min), or the oxidant monochloramine (0.6 mM for 30 minutes). Cells were rinsed in PBS, harvested, centrifuged (14,000×g for 20 seconds at room temperature) and the pellets resuspended in 200 μl of 30° C. lysis buffer (1 mM ATP, 50 mM PIPES, pH 6.9, 50 mM NaCl, 5 mM MgCl2, 5 mM EGTA, 5% (vol/vol) glycerol, 0.1% (vol/vol) Nonidet P-40, Tween 20, and Triton X-100, containing complete protease inhibitor cocktail). Cells were homogenized by gently pipetting up and down ten times and incubated at 30° C. for 10 minutes. Samples were centrifuged at 100,000×g for 60 minutes at 30° C. and the supernatants were removed for determination of G actin content. Pellets containing F-actin were resuspended in 200 μl of 4° C. distilled water with 1 μM cytochalasin D and left on ice for 60 minutes. Then, 20 μl of each extraction was removed, 6 μl 3× Laemmli stop solution was added and the samples were heated to 65° C. for 10 minutes. Samples were resolved by 12.5% SDS-PAGE and immediately transferred to PVDF membranes. […]

[2] = molecular target: T2, trypsin-like activity of the proteasome (Mus musculus, UniProt P70195); test: Proteasome assay on YAMC cell lysates, substrate Bz-val-gly-arg-AMC; format: cell-based; settings: VSL#3-CM 16 hours; lactacystin 10 μM
T2 construct: endogenous in cells; host or cells: YAMC cell lysates
T2 sequence (P70195 44-277): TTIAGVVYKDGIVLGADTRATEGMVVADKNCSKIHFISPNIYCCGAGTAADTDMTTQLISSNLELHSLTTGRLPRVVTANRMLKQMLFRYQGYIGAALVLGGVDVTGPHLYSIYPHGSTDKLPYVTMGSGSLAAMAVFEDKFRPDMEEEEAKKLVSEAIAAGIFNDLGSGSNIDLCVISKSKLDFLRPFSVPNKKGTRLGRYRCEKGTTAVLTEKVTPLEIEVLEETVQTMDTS

[3] = molecular target: T3, PGPH, or caspase-like, activity of the proteasome (Mus musculus, UniProt Q60692); test: Proteasome assay on YAMC cell lysates, substrate Z-leu-leu-glu-AMC; format: cell-based; settings: VSL#3-CM 16 hours, about equivalent to 10 μM lactacystin; lactacystin 10 μM
T3 construct: endogenous in cells; host or cells: YAMC cell lysates
T3 sequence (Q60692 1-238): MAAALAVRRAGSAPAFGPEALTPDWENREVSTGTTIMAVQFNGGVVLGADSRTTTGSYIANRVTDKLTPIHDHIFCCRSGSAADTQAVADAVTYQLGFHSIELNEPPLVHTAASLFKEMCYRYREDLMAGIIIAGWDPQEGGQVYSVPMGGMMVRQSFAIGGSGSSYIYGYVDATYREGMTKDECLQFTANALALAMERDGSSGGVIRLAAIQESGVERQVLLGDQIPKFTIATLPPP

CC(C)C[C@@H](C=O)NC(=O)[C@H](CC(C)C)NC(=O)[C@H](CC(C)C)NC(=O)OCc1ccccc1 [MG132] (Cbz-Leu-Leu-Leu-aldehyde)
appearance of Hsp signal (Hsp25 and Hsp72; MG132 25 μM time course): 7 to 14 h | induction of Hsp25 and Hsp72 (Hsp25 and Hsp72; MG132 25 μM, more robust than thermal stress): very strong induction | effect on in vitro proteasomal activity [1]: significant inhibition | effect on TNF-α-stimulated NF-κB activity (NF-κB): significantly inhibited | change in morphology and loss of cell viability (YAMC cells; 16 hours, MG132 at 25 μM, phase-contrast photographs): dramatic change in morphology and loss of cell viability | cell viability compared to untreated control cells (YAMC cells; VSL#3-CM 24 hours of treatment, MG132 prolonged exposure): markedly increased cell death

C=C1[C@@H](C)[C@H]2[C@H](Cc3ccccc3)NC(=O)[C@]23[C@H](OC(C)=O)/C=C/[C@@](C)(O)C(=O)[C@@H](C)C/C=C/[C@H]3[C@@H]1O [cytochalasin D]
effect on F- and G-actin, control agents (F/G actin): greatly increases the amount of globular (G) actin

CC(=O)N[C@@H](CSC(=O)[C@]1([C@@H](O)C(C)C)NC(=O)[C@H](C)[C@@H]1O)C(=O)O [Lactacystin]
effect on trypsin-like activity of the proteasome [2]: inhibits | effect on caspase-like activity of the proteasome [3]: only a weak inhibitor | cell toxicity limiting usable concentration (YAMC cells; concentrations higher than 10 μM): limited due to cell toxicity

C[C@@H]1NC(=O)[C@H](C[C@@](C)(O)CO)NC(=O)[C@@H]2Cc3c([nH]c4ccccc34)SC[C@H](NC(=O)[C@@H]([C@H](C)O)NC1=O)C(=O)N1C[C@@H](O)C[C@H]1C(=O)N[C@@H](C)C(=O)N2 [phalloidin] (cyclo(A[dT]C[cisHyp]A[Trp(2-yl)][Leu(4R-OH,5-OH)]); thioether 3-6)
effect on F- and G-actin, control agents (F/G actin): increasing the amount of F-actin
